Legend:
[1] = test system: Ba/F3 CD74-ROS1 non mutant; test: Antiproliferation assay (Alamar Blue, 72 h); type: cell-based, mouse; conditions: Mus musculus, BaF3, 72 h, Ba/F3 cells, cell growth inhibition
Ba/F3 ROS1 D2033N = test: Antiproliferation assay; type: cell-based; conditions: Mus musculus, BaF3; Ba/F3 cells, cell growth inhibition
Source text: (§1) To assess targeted degradation of ROS1 fusion proteins, we first established a mouse pro-B cell line Ba/F3 as a model expressing the CD74-ROS1 oncogene or CD74-ROS1 with clinically observed secondary/tertiary mutations. The Ba/F3 cell line is dependent on interleukin-3 for survival and proliferation. Upon transduction of oncogenic ROS1, Ba/F3 cells become independent of interleukin-3 but dependent on the transduced driver gene.
(§2) Ba/F3 immortalized murine bone marrow–derived pro-B cells were obtained from Creative Biogene (Shirley, NY) and cultured in RPMI supplemented with 10% FBS and IL3 (0.5 ng/mL). Ba/F3 cells expressing ROS1 variants were maintained in RPMI supplemented with 10% FBS and puromycin (0.7 mg/mL). […] Each compound was dissolved in DMSO and serially diluted in RPMI for cell culture experiments.
(§3) To assess the 72 h effect of drug treatment on cell proliferation, 2000 to 3000 cells were plated in replicates of three in 96-well plates. The plates were placed in an incubator at 37 °C, 5% CO2 for 72 h. Following drug treatments, the cells were incubated with the Alamar Blue Assay reagent (BioRad), 5 μL each well for 4 h at 37 °C and 5% CO2. Luminescence was measured on a multiplate reader and analyzed. […] IC50 values were determined using a nonlinear regression model with a sigmoidal dose response in GraphPad. The data were collected based on triplicate experiments, and presented as mean ± SD.
(§4) The resulting virus was used to infect Ba/F3 cells. After retroviral infection, Ba/F3 cells were selected by incubation with puromycin (0.7 mg/mL) for 2 weeks. For Ba/F3 cells infected by the CD74–ROS1 variants, IL3 was withdrawn from the culture medium at least 2 weeks before the experiments.

Ba/F3 ROS1 G2032R-F2075V = test: Antiproliferation assay; type: cell-based; conditions: Mus musculus, BaF3; Ba/F3 cells, cell growth inhibition
Source text: as §1, §2, §3, §4

Ba/F3 ROS1 L2026M = test: Antiproliferation assay; type: cell-based; conditions: Mus musculus, BaF3; Ba/F3 cells, cell growth inhibition
Source text: as §1, §2, §3, §4

[2] = test system: Ba/F3 CD74-ROS1 WT xenograft tumors; test: Mouse efficacy study, Ba/F3 CD74-ROS1 xenograft; type: in vivo; conditions: NOD/SCID mice
Procedure: All the procedures related to animal handling, care, and treatment in this study were performed according to guidelines approved by the Institutional Animal Care and Use Committee (IACUC) of Xavier University of Louisiana following the guidance of the AAALAC. Ba/F3-ROS1 and Ba/F3-ROS1-G2032R cells were maintained in RPMI 1640 medium supplemented with 10% fetal bovine serum. The cells growing in an exponential growth phase were harvested and counted for tumor inoculation. Female NOD/SCID mice 6–8 weeks of age were allowed to adapt to laboratory conditions for 10 days prior to dosing and were allowed food and water ad libitum. Each mouse was inoculated subcutaneously in the right flank with Ba/F3 CD74-ROS1 or Ba/F3 SL34A2-ROS1 G2032R cells (1 × 10^6) in 0.2 mL of PBS mixed with Matrigel (50:50) for tumor development.

ROS1 = ROS1 (Homo sapiens, UniProt P08922); test: Kinase assay; type: biochemical; conditions: average of duplicate measurements
ALK = ALK (Homo sapiens, UniProt Q9UM73); test: Kinase assay; type: biochemical; conditions: average of duplicate measurements
ERBB4/HER4 = ERBB4/HER4 (Homo sapiens, UniProt Q15303); test: Kinase assay; type: biochemical; conditions: average of duplicate measurements
CAMK2D = CAMK2D (Homo sapiens, UniProt Q13557); test: Kinase assay; type: biochemical; conditions: average of duplicate measurements
INSRR = INSRR (Homo sapiens, UniProt P14616); test: Kinase assay; type: biochemical; conditions: average of duplicate measurements
NUAK1 = NUAK1 (Homo sapiens, UniProt O60285); test: Kinase assay; type: biochemical; conditions: average of duplicate measurements
CAMK2G = CAMK2G (Homo sapiens, UniProt Q13555); test: Kinase assay; type: biochemical; conditions: average of duplicate measurements
BRK (PTK6) = BRK (PTK6) (Homo sapiens, UniProt Q13882); test: Kinase assay; type: biochemical; conditions: average of duplicate measurements
RET = RET (Homo sapiens, UniProt P07949); test: Kinase assay; type: biochemical; conditions: average of duplicate measurements
ROS1 (G2032R) = test: Degradation assay (Western blot in treated cells); type: cell-based; conditions: average of duplicate measurements
Procedure: However, the degradation selectivity of 9o often contrasts with its kinase binding selectivity as determined in cells treated with 9o where the kinase level was measurable by Western blot analysis. […] For example, FLT3, CHEK2, and FES, all with kinase binding at <10 nM, were only moderately or minimally degraded, if at all (Table 9).
Protein levels were analyzed using a WES instrument according to the WES User Guide from ProteinSimple in duplicate experiments. The samples were mixed with the fluorescent 5 master mix (ProteinSimple) and then heated at 95 °C for 5 min. Boiled samples, biotinylated protein ladder, antibody diluent, Streptavidin-HRP, primary antibodies, ProteinSimple horseradish peroxidase conjugated antirabbit or antimouse secondary antibodies, luminol-peroxide, and wash buffer were loaded into the WES plate (Wes 12–230 kDa Prefilled Plates with Split Buffer, ProteinSimple). The plates and capillary cartridges were loaded into the WES instrument, and protein separation, antibody incubation, and imaging were performed according to manufacturer’s instructions. Compass software (ProteinSimple) was used to acquire the data and to generate the virtual blot image reconstruction and chemiluminescence signal intensity electropherograms. […] Protein levels are expressed as the AUC of the peak chemiluminescence intensity. […]

[3] = test system: Ba/F3 ROS1 L2086F, S1986F/L2086F, S1986F/G2032R/L2086F; test: Antiproliferation assay, resistant mutations involving L2086F; type: cell-based; conditions: Mus musculus, BaF3; Ba/F3 cells, summary of Table 6; read-out: potency against resistant mutations involving L2086F, S1986F/L2086F, S1986F/G2032R/L2086F
Procedure: as §3

Sequence of ROS1 (P08922 1883-2347 limits assumed): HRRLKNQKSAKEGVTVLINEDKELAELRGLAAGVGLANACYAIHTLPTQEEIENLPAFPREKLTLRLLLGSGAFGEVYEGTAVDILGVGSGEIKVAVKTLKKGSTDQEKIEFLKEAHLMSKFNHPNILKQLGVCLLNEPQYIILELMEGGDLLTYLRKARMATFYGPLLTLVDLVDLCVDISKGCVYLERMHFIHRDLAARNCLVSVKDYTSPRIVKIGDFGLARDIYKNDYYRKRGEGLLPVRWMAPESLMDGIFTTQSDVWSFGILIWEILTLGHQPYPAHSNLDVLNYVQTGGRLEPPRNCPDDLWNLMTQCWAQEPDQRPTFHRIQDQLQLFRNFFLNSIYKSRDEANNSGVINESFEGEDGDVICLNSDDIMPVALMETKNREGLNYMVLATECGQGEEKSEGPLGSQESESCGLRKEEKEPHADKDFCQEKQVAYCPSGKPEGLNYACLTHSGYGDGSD
Sequence of NUAK1 (O60285 whole entry, species assumed): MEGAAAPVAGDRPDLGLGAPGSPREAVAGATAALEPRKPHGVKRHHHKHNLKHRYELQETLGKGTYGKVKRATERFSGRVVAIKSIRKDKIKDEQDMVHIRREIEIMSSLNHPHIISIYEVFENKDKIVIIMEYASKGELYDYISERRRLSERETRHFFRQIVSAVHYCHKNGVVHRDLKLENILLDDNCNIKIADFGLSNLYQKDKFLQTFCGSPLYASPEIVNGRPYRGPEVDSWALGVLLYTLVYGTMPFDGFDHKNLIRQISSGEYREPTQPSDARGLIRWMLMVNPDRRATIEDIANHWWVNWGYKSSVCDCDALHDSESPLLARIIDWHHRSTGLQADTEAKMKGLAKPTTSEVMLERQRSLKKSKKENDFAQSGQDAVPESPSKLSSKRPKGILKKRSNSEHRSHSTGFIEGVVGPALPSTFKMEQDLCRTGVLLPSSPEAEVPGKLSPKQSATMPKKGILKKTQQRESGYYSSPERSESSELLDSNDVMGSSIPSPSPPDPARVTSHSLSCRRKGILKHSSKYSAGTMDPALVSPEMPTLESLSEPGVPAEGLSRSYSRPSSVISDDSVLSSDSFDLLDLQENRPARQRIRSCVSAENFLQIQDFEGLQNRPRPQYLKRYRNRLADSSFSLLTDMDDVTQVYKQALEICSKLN
Sequence of ALK (Q9UM73 19-1620, species assumed): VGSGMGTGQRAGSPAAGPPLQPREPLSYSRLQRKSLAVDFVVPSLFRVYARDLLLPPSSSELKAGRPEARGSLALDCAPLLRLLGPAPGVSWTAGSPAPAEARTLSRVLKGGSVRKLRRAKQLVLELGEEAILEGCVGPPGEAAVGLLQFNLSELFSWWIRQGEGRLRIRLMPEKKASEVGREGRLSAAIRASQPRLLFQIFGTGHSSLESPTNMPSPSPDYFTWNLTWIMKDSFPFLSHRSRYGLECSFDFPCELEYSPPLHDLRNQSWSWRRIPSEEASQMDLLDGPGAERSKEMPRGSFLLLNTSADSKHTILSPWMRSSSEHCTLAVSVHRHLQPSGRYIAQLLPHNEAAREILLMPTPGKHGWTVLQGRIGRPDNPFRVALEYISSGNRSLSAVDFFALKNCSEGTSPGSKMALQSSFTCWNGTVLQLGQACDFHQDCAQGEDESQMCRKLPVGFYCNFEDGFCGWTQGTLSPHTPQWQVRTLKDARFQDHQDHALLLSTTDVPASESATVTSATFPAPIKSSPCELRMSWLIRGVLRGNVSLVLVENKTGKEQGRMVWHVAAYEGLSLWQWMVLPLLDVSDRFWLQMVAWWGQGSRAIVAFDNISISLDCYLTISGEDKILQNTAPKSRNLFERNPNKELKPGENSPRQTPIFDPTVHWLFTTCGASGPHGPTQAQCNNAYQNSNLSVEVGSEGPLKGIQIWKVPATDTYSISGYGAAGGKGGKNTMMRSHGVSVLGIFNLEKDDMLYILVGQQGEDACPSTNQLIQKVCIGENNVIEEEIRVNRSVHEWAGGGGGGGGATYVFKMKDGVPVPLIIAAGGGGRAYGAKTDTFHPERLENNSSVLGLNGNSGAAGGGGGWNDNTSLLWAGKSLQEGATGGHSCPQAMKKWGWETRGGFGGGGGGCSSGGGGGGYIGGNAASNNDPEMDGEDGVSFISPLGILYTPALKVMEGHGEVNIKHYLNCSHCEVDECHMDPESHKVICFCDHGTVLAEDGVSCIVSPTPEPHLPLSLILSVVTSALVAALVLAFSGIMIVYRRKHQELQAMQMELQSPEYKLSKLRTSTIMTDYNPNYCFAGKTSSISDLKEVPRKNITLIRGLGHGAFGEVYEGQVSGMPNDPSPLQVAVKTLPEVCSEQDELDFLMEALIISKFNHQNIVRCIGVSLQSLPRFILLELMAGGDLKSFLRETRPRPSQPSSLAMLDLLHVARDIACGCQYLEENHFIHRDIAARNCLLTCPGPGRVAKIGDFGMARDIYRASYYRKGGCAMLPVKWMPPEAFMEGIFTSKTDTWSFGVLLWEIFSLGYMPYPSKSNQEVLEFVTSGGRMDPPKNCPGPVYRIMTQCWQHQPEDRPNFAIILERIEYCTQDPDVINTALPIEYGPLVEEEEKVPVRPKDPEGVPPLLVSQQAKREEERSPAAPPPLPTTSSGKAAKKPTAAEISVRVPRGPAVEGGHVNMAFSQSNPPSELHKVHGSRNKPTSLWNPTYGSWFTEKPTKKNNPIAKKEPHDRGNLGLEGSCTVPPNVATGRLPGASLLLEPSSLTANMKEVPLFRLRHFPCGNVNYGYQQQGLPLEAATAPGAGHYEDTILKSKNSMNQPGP
Sequence of RET (P07949 29-1114, species assumed): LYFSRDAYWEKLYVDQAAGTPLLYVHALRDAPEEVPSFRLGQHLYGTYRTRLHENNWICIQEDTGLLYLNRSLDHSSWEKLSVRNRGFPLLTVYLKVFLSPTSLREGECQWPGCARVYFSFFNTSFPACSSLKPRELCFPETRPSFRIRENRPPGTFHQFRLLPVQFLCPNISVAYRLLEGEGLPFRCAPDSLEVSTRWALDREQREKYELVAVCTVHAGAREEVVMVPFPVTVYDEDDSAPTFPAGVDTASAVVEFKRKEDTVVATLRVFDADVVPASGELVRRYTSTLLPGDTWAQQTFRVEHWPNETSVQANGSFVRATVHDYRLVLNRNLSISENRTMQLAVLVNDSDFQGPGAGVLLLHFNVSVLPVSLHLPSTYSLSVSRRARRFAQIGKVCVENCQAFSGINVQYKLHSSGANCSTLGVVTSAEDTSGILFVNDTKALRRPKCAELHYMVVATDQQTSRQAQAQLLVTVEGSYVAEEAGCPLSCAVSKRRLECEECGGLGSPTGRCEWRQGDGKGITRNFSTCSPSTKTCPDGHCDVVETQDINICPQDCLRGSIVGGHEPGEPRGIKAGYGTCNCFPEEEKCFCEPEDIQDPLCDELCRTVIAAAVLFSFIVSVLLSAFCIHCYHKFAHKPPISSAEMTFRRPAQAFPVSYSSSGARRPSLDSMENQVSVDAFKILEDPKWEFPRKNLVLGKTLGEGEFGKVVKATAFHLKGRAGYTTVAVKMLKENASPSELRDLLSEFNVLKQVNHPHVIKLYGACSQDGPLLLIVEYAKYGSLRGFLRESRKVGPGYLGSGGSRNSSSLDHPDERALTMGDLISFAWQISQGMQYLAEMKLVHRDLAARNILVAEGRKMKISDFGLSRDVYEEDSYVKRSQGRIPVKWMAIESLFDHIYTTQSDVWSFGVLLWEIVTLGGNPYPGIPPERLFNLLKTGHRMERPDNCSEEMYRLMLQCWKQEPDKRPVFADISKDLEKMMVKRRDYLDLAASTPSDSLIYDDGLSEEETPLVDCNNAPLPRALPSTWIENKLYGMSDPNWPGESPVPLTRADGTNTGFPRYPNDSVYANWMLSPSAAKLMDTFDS
Sequence of CAMK2D (Q13557 whole entry, species assumed): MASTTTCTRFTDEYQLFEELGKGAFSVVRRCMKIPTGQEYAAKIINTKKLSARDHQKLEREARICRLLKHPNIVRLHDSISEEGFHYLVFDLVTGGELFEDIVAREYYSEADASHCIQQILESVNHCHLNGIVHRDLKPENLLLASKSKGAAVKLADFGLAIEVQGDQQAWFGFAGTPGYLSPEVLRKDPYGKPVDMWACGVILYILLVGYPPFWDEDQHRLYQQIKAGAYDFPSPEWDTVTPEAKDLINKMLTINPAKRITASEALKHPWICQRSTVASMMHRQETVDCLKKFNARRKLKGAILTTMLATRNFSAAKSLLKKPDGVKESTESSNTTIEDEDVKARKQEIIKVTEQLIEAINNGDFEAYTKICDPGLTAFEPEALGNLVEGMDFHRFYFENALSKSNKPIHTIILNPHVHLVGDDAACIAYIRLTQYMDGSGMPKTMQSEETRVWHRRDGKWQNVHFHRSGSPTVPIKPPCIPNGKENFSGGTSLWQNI
Sequence of CAMK2G (Q13555 whole entry, species assumed): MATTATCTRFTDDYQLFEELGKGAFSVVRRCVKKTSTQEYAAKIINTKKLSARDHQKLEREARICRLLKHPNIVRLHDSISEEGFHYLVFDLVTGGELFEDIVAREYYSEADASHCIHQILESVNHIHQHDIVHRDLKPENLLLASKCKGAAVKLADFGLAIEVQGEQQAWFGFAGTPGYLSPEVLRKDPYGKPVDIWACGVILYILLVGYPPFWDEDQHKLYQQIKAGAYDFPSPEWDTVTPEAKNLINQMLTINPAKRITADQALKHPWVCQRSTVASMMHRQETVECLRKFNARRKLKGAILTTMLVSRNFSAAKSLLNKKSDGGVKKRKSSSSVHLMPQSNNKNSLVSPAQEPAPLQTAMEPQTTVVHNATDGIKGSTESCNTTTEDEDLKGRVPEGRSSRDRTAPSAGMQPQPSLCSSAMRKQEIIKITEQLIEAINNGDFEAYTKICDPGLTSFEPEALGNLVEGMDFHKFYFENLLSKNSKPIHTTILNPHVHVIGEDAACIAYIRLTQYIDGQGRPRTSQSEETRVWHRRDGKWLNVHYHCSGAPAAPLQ

IC50 [1]: 1.1 ± 0.3 nM
IC50 (Ba/F3 ROS1 D2033N): 9.6 nM
IC50 (Ba/F3 ROS1 G2032R-F2075V): 5.6 nM
IC50 (Ba/F3 ROS1 L2026M): 2.5 nM
IC50 (ROS1): 0.8 nM
IC50 (ALK): 0.9 nM
IC50 (ERBB4/HER4): 27 nM
IC50 (CAMK2D): 39 nM
IC50 (INSRR): 45 nM
IC50 (NUAK1): 47 nM
IC50 (CAMK2G): 48 nM
IC50 (BRK (PTK6)): 76 nM
IC50 (RET): 82 nM
DC50 (ROS1 (G2032R)): 13.2 nM
IC50 [3]: 1.9 to 66 nM
SMILES: COc1cc(N2CCC(N3CCN(CC4CCN(c5ccc6c(c5)CN(C5CCC(=O)NC5=O)C6=O)CC4)CC3)CC2)ccc1Nc1ncc(Cl)c(Nc2ccccc2P(C)(C)=O)n1 (centres unmarked) [9o, 3-(5-(4-((4-(1-(4-((5-Chloro-4-((2-(dimethylphosphoryl)phenyl)amino)pyrimidin-2-yl)amino)-3-methoxyphenyl)piperidin-4-yl)piperazin-1-yl)methyl)piperidin-1-yl)-1-oxoisoindolin-2-yl)piperidine-2,6-dione]
TGI (tumor growth inhibition) ([2]; 10 mg/kg PO qd): 62%
TGI (tumor growth inhibition) ([2]; 30 mg/kg PO qd): 164%

From publication PMC11513893, “Discovery of Oral Degraders of the ROS1 Fusion Protein with Potent Activity against Secondary Resistance Mutations” (Journal of Medicinal Chemistry, 2024)
